The text below walks through data of publication PMC5824344 (ACS Chemical Biology, 2017).

In data set [1] the target is T1, Rat liver ER α-glucosidase I (Rattus norvegicus, UniProt O88941).
T1 construct: Rat liver ER, I; from tissue; host or cells: liver of male Wistar rats
T1 sequence (O88941 1-834): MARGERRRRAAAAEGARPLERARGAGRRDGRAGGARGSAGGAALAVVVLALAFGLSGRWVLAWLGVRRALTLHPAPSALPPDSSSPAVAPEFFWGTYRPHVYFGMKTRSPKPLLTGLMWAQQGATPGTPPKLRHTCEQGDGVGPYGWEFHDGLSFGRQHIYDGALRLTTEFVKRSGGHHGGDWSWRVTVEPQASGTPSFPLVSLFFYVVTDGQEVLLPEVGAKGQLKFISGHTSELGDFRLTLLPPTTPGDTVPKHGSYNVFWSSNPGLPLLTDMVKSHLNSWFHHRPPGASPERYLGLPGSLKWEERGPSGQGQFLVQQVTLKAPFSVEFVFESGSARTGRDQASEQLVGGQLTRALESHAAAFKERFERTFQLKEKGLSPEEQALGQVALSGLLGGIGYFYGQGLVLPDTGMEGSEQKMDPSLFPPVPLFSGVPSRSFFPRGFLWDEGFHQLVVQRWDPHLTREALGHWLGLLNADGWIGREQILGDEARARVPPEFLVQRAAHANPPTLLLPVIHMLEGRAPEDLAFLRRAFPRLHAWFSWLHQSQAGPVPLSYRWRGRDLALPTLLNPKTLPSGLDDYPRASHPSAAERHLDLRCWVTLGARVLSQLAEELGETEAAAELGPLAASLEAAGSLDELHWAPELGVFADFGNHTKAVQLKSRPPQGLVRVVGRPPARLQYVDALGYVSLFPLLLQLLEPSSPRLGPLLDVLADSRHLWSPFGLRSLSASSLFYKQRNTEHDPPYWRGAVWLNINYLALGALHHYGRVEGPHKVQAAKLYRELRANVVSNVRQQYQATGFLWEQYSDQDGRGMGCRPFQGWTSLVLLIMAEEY
The data set can be described thus: Inhibition of isolated rat liver ER α-glucosidase I (anthranilic acid-labelled Glc3Man7GlcNAc2 substrate, HPLC). The format is biochemical. Conditions: isolated enzyme in vitro; mean of three measurements. The method, then: (§1) 4 Enzyme Inhibition Assays
(§2) All rat enzymes were isolated from 18-week-old, male Wistar rats, while human lysosomal α-glucosidase was obtained in commercially available form from Sanoﬁ Genzyme. Inhibition of isolated glucosidases was evaluated as described previously. 3 Brieﬂy, maltase, isomaltase, sucrase, and cellobiase were used as partially puriﬁed tissue extracts. Inhibition assays for each enzyme were performed with the respective natural substrate, and release of d-glucose measured by Glucose B-test (Wako Diagnostics). Assays of rat ER α-glucosidase II and human lysosomal α-glucosidase inhibition were conducted with α-p-nitrophenylglucoside as substrate; 400 mm Na2CO3 was added to quench these reactions, and the extent of hydrolysis was evaluated as absorbance at 400 nm by spectrophotometer.
(§3) ER α-glucosidase I inhibition assays were performed using anthranilic acid-labelled Glc3Man7GlcNAc2 as substrate. After terminating the reaction with acetonitrile, protein was removed by cen-trifugation through a 10 kDa molecular weight cut oﬀ ﬁlter. The amount of hydrolysis was then quantiﬁed by normal phase high performance liquid chromatography analysis of unreacted substrate and product (Glc2Man7GlcNAc2).4
(§4) ER α-glucosidase II inhibition assays using native-like substrates were performed using an-thranilic acid-labelled Glc2Man7GlcNAc2 as substrate. After terminating the reaction with acetonitrile, protein was removed by centrifugation through a 10 kDa molecular weight cut oﬀ ﬁlter. The amount of hydrolysis was then quantiﬁed by normal phase high performance liq-uid chromatography analysis of unreacted substrate and both products (Glc1Man7GlcNAc2

For data set [2], the target named is T2, Rat liver ER α-glucosidase II (Rattus norvegicus, UniProt A0A8I6GFL3).
T2 construct: Rat liver ER, II; from tissue; host or cells: liver of male Wistar rats
Put plainly: Inhibition of isolated rat liver ER α-glucosidase II (α-p-nitrophenylglucoside substrate). The data set is classed as biochemical. The settings on record: isolated enzyme in vitro; read-out: IC50 with regard to GluII. How it is done: as §1, §2, §3, §4

Another data set deals with Rat intestinal maltase. Put plainly: Inhibition of rat intestinal maltase (natural substrate, glucose release). The data set is classed as biochemical. Conditions: isolated enzyme in vitro; mean of three measurements; read-out: IC50, α-Glucosidase, Rat intestinal maltase. The method, then:
as §1, §2, §3, §4

For data set [3], the target named is T3, Rat intestinal isomaltase (Rattus norvegicus, UniProt P23739).
T3 construct: from tissue; host or cells: intestine of male Wistar rats, partially purified extract
Put plainly: Inhibition of rat intestinal isomaltase (natural substrate, glucose release). The data set is classed as biochemical. Conditions: isolated enzyme in vitro; mean of three measurements; read-out: IC50, α-Glucosidase, Rat intestinal isomaltase. How it is done:
as §1, §2, §3, §4

Data set [4] relates to DENV2 strain 16681 in primary human MDMΦ. Put plainly: DENV primary MDMΦ antiviral assay (infectious titer by plaque assay). The format is cell-based, dengue virus. The settings on record: dengue-infected MDMΦ, 7 donors. How it is done: each well was scored as either positive (≥ 5 stained cells) or negative. TCID50 values were calculated according to the method of Reed and Muench.8
5.7 DENV Primary MDMΦ Antiviral Assay
DENV2 strain 16681 (a gift from Prof. E. Gould, Centre for Ecology and Hydrology, Oxford, United Kingdom) was propagated in the C6/36 cell line. In the antiviral assay, MDMΦ cells (7 donors) were seeded in a 24-well plate at a density of 1× 10^6 cells/well in 1 mL of growth media. The cells were inoculated for 2 h with DENV2 16681 strain at an MOI of 1. […]
(§5) The infectious DENV titres in supernatants collected were evaluated by plaque assay as described previously.9 Brieﬂy, LLC-MK2 cells were seeded in conﬂuent monolayers in a 12-well plate. Four 10-fold dilutions of each supernatant to be analyzed were prepared in minimum essential media (MEM, Gibco), supplemented with 100 µg mL−1 streptomycin, 100 U mL−1 penicillin and 10% (v/v) FCS. […]
(§6) After 1 d, plaques were observed and counted from the underside of the plate by eye. […]
18 healthy male BALB/c mice (8 – 12 weeks old) weighing between 20 and 35 g were procured from ACTREC, Mumbai, India. […] Temperature and humidity were recorded by an auto-controlled data logging system and maintained at 22± 3◦C and 55± 15% humidity, respectively. […]

Data set [5] deals with DENV (serotype 2, strain 16681) in Huh7.5 cells. The data set can be described thus: DENV Huh7.5 antiviral assay (infectious titer by plaque assay). The format is cell-based, dengue virus. Conditions: MOI 0.1, 48 h, titration of 4 or 50 µm of 3. How it is done: (§7) Supplemental Figure 3: Antiviral activity of 4 in human hepatoma Huh7.5 cell line.
(§8) (A) Huh7.5 cells were infected with DENV (serotype 2, strain 16681, multiplicity of infection = 0.1) and treated with a titration of ToP-DNJ 4 or 50 µm of tocopherol 3 for 48 h. Infectious virus titer was measured by plaque assay on LLC-MK2 cells. Counts were normalized to 100% for untreated samples.
(§9) DENV eﬀect at the concentrations tested. (B) Huh7.5 cells were infected with HCV (JFH-1, multiplicity of infection = 2) and treated with a titration of ToP-DNJ 4 or 50 µm tocopherol 3 for 96 h. Infectious virus titer was measured by TCID50 assay on […]
(§10) tested. In both panels, each data point represent the mean of triplicates, with error bars showing standard error of the mean (GraphPad Prism). […]
(§11) each well was scored as either positive (≥ 5 stained cells) or negative. TCID50 values were calculated according to the method of Reed and Muench.8 […]
as §5, §6

Data set [6] relates to HCV (JFH-1) in Huh7.5 cells. The data set can be described thus: HCV antiviral assay in Huh7.5 cells (infectious titer by TCID50 assay). The data set is classed as cell-based, hepatitis C virus. Conditions: MOI 2, 96 h, titration of 4 or 50 µm of 3. How it is done:
as §7, §8, §9, §10
Huh7.5 cells were seeded in a 96-well plate at a density of 5× 10^3 cells/well in 100 µL growth media. […] The supernatant was harvested, and infectious viral titre assessed immediately in the TCID50 assay.
Huh7.5 cells were seeded in a 96-well plate at a density of 2× 10^4 cells/well in 100 µL of growth media and incubated for 18 h. The supernatants to be evaluated were diluted 1:10 in growth media, and 7 serial half-log10 dilutions were subsequently prepared in the same media. […]
as §11

Details of data set [7]: method as in PMID 15522126. The settings on record: cited from earlier work.

T2 sequence (A0A8I6GFL3 33-944): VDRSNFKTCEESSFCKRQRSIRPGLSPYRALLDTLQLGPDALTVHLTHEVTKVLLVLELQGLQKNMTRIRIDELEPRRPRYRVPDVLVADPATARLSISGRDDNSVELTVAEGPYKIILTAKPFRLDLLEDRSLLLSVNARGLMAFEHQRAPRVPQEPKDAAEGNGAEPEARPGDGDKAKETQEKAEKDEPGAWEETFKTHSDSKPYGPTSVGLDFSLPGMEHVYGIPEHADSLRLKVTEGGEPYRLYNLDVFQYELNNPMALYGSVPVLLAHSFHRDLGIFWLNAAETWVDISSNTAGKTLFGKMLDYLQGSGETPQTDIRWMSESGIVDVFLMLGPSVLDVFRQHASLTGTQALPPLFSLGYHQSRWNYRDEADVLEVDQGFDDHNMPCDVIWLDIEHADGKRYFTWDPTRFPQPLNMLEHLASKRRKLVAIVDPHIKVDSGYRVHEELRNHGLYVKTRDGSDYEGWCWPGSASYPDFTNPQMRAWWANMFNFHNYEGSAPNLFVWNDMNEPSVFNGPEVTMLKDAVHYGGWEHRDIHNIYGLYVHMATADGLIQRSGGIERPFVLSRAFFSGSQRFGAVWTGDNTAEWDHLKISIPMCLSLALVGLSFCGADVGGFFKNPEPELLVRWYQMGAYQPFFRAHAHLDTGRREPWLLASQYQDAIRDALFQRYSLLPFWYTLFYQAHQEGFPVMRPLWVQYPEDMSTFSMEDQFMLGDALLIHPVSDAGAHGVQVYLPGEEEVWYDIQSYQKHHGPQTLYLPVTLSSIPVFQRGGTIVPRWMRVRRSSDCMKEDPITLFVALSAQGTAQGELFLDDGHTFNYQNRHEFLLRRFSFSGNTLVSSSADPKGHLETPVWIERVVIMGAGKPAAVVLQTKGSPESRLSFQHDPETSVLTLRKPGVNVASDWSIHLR
T2 sequence (A0A8I6ADW9 1-525 partner): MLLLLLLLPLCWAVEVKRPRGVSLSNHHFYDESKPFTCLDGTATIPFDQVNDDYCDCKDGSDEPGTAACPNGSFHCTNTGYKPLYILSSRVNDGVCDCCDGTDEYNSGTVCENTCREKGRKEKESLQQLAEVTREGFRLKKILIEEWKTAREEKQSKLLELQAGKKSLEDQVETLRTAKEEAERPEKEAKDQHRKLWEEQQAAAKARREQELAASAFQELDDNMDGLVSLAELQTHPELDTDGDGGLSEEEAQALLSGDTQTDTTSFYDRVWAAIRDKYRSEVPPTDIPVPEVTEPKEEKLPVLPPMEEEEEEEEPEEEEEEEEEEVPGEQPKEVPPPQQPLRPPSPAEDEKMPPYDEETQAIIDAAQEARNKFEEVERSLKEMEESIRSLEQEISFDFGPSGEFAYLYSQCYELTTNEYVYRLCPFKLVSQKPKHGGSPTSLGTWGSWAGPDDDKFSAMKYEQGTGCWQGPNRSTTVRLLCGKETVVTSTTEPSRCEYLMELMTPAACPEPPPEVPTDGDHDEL
T3 sequence (P23739 whole entry): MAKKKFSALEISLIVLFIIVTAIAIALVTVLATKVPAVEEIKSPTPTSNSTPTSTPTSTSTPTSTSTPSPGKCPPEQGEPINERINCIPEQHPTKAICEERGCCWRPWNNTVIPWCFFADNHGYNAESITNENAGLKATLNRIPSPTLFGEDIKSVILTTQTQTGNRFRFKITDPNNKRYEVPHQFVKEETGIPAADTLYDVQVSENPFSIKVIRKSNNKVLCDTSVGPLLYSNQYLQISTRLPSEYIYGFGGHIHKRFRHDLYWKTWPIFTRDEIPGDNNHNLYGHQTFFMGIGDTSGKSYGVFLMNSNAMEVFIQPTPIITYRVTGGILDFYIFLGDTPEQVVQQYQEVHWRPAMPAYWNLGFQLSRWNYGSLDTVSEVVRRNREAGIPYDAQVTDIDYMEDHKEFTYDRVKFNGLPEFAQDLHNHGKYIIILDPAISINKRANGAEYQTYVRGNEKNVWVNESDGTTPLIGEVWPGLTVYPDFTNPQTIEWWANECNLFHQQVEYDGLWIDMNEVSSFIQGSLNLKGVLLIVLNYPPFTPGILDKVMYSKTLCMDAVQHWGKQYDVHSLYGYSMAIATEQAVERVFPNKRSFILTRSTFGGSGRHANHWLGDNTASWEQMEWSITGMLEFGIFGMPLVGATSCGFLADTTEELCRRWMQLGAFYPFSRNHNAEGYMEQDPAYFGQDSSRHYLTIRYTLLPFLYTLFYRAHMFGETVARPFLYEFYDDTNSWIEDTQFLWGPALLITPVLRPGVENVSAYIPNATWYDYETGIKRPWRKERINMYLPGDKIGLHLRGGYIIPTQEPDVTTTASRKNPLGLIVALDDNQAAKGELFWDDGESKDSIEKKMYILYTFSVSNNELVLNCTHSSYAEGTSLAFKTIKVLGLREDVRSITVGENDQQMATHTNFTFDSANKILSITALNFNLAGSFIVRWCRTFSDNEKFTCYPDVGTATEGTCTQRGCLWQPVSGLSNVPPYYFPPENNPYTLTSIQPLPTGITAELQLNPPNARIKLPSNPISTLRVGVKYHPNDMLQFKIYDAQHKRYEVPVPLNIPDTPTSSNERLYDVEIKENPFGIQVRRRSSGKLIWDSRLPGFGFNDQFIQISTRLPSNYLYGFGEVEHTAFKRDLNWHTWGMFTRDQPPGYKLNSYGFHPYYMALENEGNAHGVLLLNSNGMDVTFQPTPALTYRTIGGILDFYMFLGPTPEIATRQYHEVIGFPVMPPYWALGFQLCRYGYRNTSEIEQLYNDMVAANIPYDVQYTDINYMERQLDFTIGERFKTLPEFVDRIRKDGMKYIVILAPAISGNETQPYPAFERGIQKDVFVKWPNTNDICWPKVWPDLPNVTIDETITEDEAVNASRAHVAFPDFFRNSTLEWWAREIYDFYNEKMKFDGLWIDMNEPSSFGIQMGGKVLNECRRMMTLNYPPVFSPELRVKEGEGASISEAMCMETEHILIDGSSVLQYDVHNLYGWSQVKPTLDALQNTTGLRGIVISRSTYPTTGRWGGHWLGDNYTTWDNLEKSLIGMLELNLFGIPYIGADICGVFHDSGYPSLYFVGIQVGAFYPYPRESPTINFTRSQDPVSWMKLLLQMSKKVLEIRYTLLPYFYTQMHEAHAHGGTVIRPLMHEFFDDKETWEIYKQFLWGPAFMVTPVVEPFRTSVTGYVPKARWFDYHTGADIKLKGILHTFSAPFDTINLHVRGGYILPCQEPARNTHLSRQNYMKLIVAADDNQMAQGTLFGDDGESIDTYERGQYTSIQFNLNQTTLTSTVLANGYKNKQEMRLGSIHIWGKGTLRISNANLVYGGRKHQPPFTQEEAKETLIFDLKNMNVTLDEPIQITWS

Broadly, the IC50 is the concentration needed to halve the response being measured. For the compound `OC[C@H]1NC[C@H](O)[C@@H](O)[C@@H]1O` [Compound 1, D-1-deoxynojirimycin, reference compound], the IC50 in data set [1] was 2200 nM; in data set [2], 16000 nM; on Rat intestinal maltase, 160 nM; in data set [3], 790 nM.
Regarding `Cc1c(C)c2c(c(C)c1O)CCC(C)(CCCC(C)CCCC(C)CCCC(C)C)O2` [Compound 3, D-(+)-α-tocopherol, reference compound], the “antiviral effect on infectious virus titer” value in data set [4] is “no antiviral effect”. For the same compound, the “anti-DENV effect (infectious virus titer)” value in data set [5] is recorded as “Neither 4 nor 3 showed an anti-”. Besides, the “anti-HCV effect (infectious virus titer)” value in data set [6] was “Neither 4 nor 3 showed an anti-HCV eﬀect”. For the same compound, the “increase of plasma levels when consumed with a lipid-rich meal” value in data set [7] is listed as 10 fold.
